Experimental data from patent US12662458B2, “Solid forms of a compound” (Denali Therapeutics Inc., priority 2020, dated 2026).
“Also recorded” adds a separate entry of the source.

Legend:
[1] = tested on: ISR pathway (H4 ATF4-NLuc cell line); assay: ATF4 Nano Luciferase reporter integrated stress response (ISR) assay; assay type: cell-based; settings: Homo sapiens; H4 ATF4-NLuc (clone 17) cells, 50 um sodium arsenite 6 hours, luminescence
From the text: Cellular stress leads to activation of the integrated stress response pathway through one of four eukaryotic initiation factor 2α kinases and halts global translation, while allowing for the translation of select transcripts like ATF4 (activating transcription factor 4) that are important for the response to cellular stress. During normal conditions, small open reading frames (ORFs) in the 5′ UTR of ATF4 occupy the ribosome and prevent translation of the coding sequence of ATF4. During stress conditions however, the ribosome scans past these upstream ORFs and preferentially begins translation at the coding sequence of ATF4. In this way, the translation, and thus protein level of ATF4 is a readout of ISR pathway activation. Thus, a fusion of the uORFs and the beginning of the coding sequence of ATF to a common cellular reporter like nano-luciferase allows for a sensitive and high-throughput readout of ISR pathway activity.
Compound I, or any of its forms described herein, may be tested in the following assay. […] We utilized this cell line to generate an integrated stress response (ISR) assay to evaluate the activity of ISR pathway inhibitors via luminescence readout. […]

Vacuum drying of Form B = assay type: physicochemical; settings: vacuum drying at room temperature
Experimental: A 1,4-dioxane solution of Form A was prepared by dissolving 20 mg in 0.2-1.0 mL of 1,4-dioxane until clear solution was obtained. Then, water was added while maintaining magnetic agitation until precipitate appeared. […] XRPD data was obtained on the wet-cake prior to drying.
Form B can only be prepared in a location where Form C has rigorously been excluded, otherwise the conditions to prepare Form B (described above) will instead produce Form C, the most thermodynamically stable form identified.

| SMILES | IC50 [1] | form after vacuum drying (Vacuum drying of Form B) |
| --- | --- | --- |
| O=C(COc1ccc(Cl)cc1)NC12CC(c3nnc([C@H]4C[C@@H](OC(F)(F)F)C4)o3)(C1)C2 [Compound I, 2-(4-chlorophenoxy)-N-[3-[5-[cis-3-(trifluoromethoxy)cyclobutyl]-1,3,4-oxadiazol-2-yl]-1-bicyclo[1.1.1]pentanyl]acetamide] | < 1 µM |  |
| O=C(COc1ccc(Cl)cc1)NC12CC(c3nnc([C@H]4C[C@@H](OC(F)(F)F)C4)o3)(C1)C2 [Form B, 2-(4-chlorophenoxy)-N-[3-[5-[cis-3-(trifluoromethoxy)cyclobutyl]-1,3,4-oxadiazol-2-yl]-1-bicyclo[1.1.1]pentanyl]acetamide] |  | converted to Form A; also recorded: desolvates to Form A |
